System: SARS-CoV-2 Delta
Assay type: cell-based
Conditions: 346 µM compounds, 480 µg/ml antibodies

Row | Substance | viral replication of SARS-CoV-2, basal treatment
1 | Casirivimab: monoclonal Ab administered intravenously in patients, used as positive control (Roche) | show an antiviral effect
2 | Imdevimab: monoclonal Ab administered intravenously in patients, used as positive control (Roche) | show an antiviral effect
